# Reference: paper PMC5218480 (PLoS ONE, 2017)
# System: MV-4-11 cells
# Test: Gene expression microarray analysis (Affymetrix PrimeView) and GSEA
# Assay type: cell-based, human
# Set-up: RFU PODN (11730768_x_at) / Fold change /veh PODN (11730768_x_at) / RFU LINC00158 (11744669_a_at) / Fold change /veh LINC00158 (11744669_a_at) / RFU DUSP10 (11751237_a_at) / Fold change /veh DUSP10 (11751237_a_at) / RFU ID3 (11757404_x_at) / Fold change /veh ID3 (11757404_x_at) / RFU PLEKHG5 (11737974_s_at) / Fold change /veh PLEKHG5 (11737974_s_at) / RFU LRRC4B (11730491_at) / Fold change /veh LRRC4B (11730491_at) / RFU GIMAP4 (11747438_a_at) / Fold change /veh GIMAP4 (11747438_a_at) / RFU KRT8 (11758183_x_at) / Fold change /veh KRT8 (11758183_x_at) / RFU CNN1 (11734310_a_at) / Fold change /veh CNN1 (11734310_a_at) / RFU VPS37D (11726825_at) / Fold change /veh VPS37D (11726825_at) / RFU C10orf10 (11716522_x_at) / Fold change /veh C10orf10 (11716522_x_at) / RFU KIR2DL2 /// KIR2DL4 /// KIR2DL5A /// KIR2DL5B /// KIR2DS1 /// KIR2DS2 /// KIR2DS3 /// KIR2DS4 /// KIR3DL3 /// KIR3DL3 /// KIR3DS1 (11738374_at) / Fold change /veh KIR2DL2 /// KIR2DL4 /// KIR2DL5A /// KIR2DL5B /// KIR2DS1 /// KIR2DS2 /// KIR2DS3 /// KIR2DS4 /// KIR3DL3 /// KIR3DL3 /// KIR3DS1 (11738374_at) / RFU C1QL1 (11718748_at) / Fold change /veh C1QL1 (11718748_at) / RFU TMPRSS4 (11747572_a_at) / Fold change /veh TMPRSS4 (11747572_a_at) / RFU HAMP (11756126_x_at) / Fold change /veh HAMP (11756126_x_at) / RFU RNFT2 (11725882_a_at) / Fold change /veh RNFT2 (11725882_a_at) / RFU NR4A2 (11747474_a_at) / Fold change /veh NR4A2 (11747474_a_at) / RFU ABCC12 (11746883_a_at) / Fold change /veh ABCC12 (11746883_a_at) / RFU TMEM136 (11760407_x_at) / Fold change /veh TMEM136 (11760407_x_at) / RFU CLDN22 /// WWC2 (11732394_at) / Fold change /veh CLDN22 /// WWC2 (11732394_at) / RFU HLA-DPB1 (11760878_x_at) / Fold change /veh HLA-DPB1 (11760878_x_at) / RFU SPINT1 (11716480_a_at) / Fold change /veh SPINT1 (11716480_a_at) / RFU GAP43 (11754022_s_at) / Fold change /veh GAP43 (11754022_s_at) / RFU A4GNT (11735810_at) / Fold change /veh A4GNT (11735810_at) / RFU PRB3 (11715151_x_at) / Fold change /veh PRB3 (11715151_x_at) / RFU TUBB4B (11761932_at) / Fold change /veh TUBB4B (11761932_at) / RFU CAPN14 (11732068_a_at) / Fold change /veh CAPN14 (11732068_a_at) / RFU TMCC2 (11721928_a_at) / Fold change /veh TMCC2 (11721928_a_at) / RFU IRGQ (11745062_a_at) / Fold change /veh IRGQ (11745062_a_at) / RFU FAM174B (11720279_a_at) / Fold change /veh FAM174B (11720279_a_at) / RFU TMPRSS4 (11748680_a_at) / Fold change /veh TMPRSS4 (11748680_a_at) / RFU FAM212B (11763350_a_at) / Fold change /veh FAM212B (11763350_a_at) / RFU PLEKHG5 (11743358_a_at) / Fold change /veh PLEKHG5 (11743358_a_at) / RFU ZSCAN30 (11745921_a_at) / Fold change /veh ZSCAN30 (11745921_a_at) / RFU CMKLR1 (11741424_a_at) / Fold change /veh CMKLR1 (11741424_a_at) / RFU LOC101060620 /// MAPK8IP1 (11723275_at) / Fold change /veh LOC101060620 /// MAPK8IP1 (11723275_at) / RFU SPTSSB (11747773_x_at) / Fold change /veh SPTSSB (11747773_x_at) / RFU PRSS12 (11739890_at) / Fold change /veh PRSS12 (11739890_at) / RFU BIN1 (11741810_x_at) / Fold change /veh BIN1 (11741810_x_at) / RFU WNT11 (11732464_a_at) / Fold change /veh WNT11 (11732464_a_at) / RFU C10orf10 (11716521_a_at) / Fold change /veh C10orf10 (11716521_a_at) / RFU C5orf56 (11738089_at) / Fold change /veh C5orf56 (11738089_at) / RFU CYB561 (11721691_x_at) / Fold change /veh CYB561 (11721691_x_at) / RFU ANKRD19P (11752326_a_at) / Fold change /veh ANKRD19P (11752326_a_at) / RFU OR2T12 /// OR2T33 /// OR2T8 (11738714_s_at) / Fold change /veh OR2T12 /// OR2T33 /// OR2T8 (11738714_s_at) / RFU VCAN (11748164_a_at) / Fold change /veh VCAN (11748164_a_at) / RFU JSRP1 (11732532_at) / Fold change /veh JSRP1 (11732532_at) / RFU KRTAP10-11 (11738290_x_at) / Fold change /veh KRTAP10-11 (11738290_x_at) / RFU MYO3A (11730013_a_at) / Fold change /veh MYO3A (11730013_a_at) / RFU EBF3 (11725865_a_at) / Fold change /veh EBF3 (11725865_a_at) / RFU CAMK2N1 (11719241_x_at) / Fold change /veh CAMK2N1 (11719241_x_at) / RFU C5orf56 (11738088_a_at) / Fold change /veh C5orf56 (11738088_a_at) / RFU OLFML3 (11715873_a_at) / Fold change /veh OLFML3 (11715873_a_at) / RFU LOC100653217 /// NTM (11731650_a_at) / Fold change /veh LOC100653217 /// NTM (11731650_a_at) / RFU MAPK11 (11762145_a_at) / Fold change /veh MAPK11 (11762145_a_at) / RFU FIZ1 (11724087_x_at) / Fold change /veh FIZ1 (11724087_x_at) / RFU OASL (11726364_x_at) / Fold change /veh OASL (11726364_x_at) / RFU SOX15 (11748057_x_at) / Fold change /veh SOX15 (11748057_x_at) / RFU CD79A (11719716_a_at) / Fold change /veh CD79A (11719716_a_at) / RFU HIST1H1D (11736915_at) / Fold change /veh HIST1H1D (11736915_at) / RFU CASKIN2 (11723855_a_at) / Fold change /veh CASKIN2 (11723855_a_at) / RFU LOC730098 (11760151_x_at) / Fold change /veh LOC730098 (11760151_x_at) / RFU OR4N2 (11742367_at) / Fold change /veh OR4N2 (11742367_at) / RFU PRRT2 (11749266_a_at) / Fold change /veh PRRT2 (11749266_a_at) / RFU SNX32 (11753110_a_at) / Fold change /veh SNX32 (11753110_a_at) / RFU CDHR5 (11726645_a_at) / Fold change /veh CDHR5 (11726645_a_at) / RFU RCAN1 (11760418_a_at) / Fold change /veh RCAN1 (11760418_a_at) / RFU FAM167A (11723789_a_at) / Fold change /veh FAM167A (11723789_a_at) / RFU FAM26E (11764081_at) / Fold change /veh FAM26E (11764081_at) / RFU ISYNA1 (11749810_s_at) / Fold change /veh ISYNA1 (11749810_s_at) / RFU ACY1 (11761880_at) / Fold change /veh ACY1 (11761880_at) / RFU 11764098_at / Fold change /veh 11764098_at / RFU SAMD14 (11745864_x_at) / Fold change /veh SAMD14 (11745864_x_at) / RFU NPB (11741838_a_at) / Fold change /veh NPB (11741838_a_at) / RFU TMPRSS6 (11731388_a_at) / Fold change /veh TMPRSS6 (11731388_a_at) / RFU KRTAP10-2 (11738614_at) / Fold change /veh KRTAP10-2 (11738614_at) / RFU ARHGAP8 /// PRR5-ARHGAP8 (11727945_x_at) / Fold change /veh ARHGAP8 /// PRR5-ARHGAP8 (11727945_x_at) / RFU KRTAP5-7 /// NADSYN1 (11734609_at) / Fold change /veh KRTAP5-7 /// NADSYN1 (11734609_at) / RFU RASL12 (11751679_a_at) / Fold change /veh RASL12 (11751679_a_at) / RFU CDKN2B (11736163_a_at) / Fold change /veh CDKN2B (11736163_a_at) / RFU PRF1 (11729649_at) / Fold change /veh PRF1 (11729649_at) / RFU, ZNF638 /// ZNF638-IT1 / Fold change vs veh, ZNF638 /// ZNF638-IT1 / RFU, PANK3 / Fold change vs veh, PANK3 / RFU, SH3YL1 / Fold change vs veh, SH3YL1 / RFU, ZEB2 / Fold change vs veh, ZEB2 / RFU, NRIP1 / Fold change vs veh, NRIP1 / RFU, PTTG1IP / Fold change vs veh, PTTG1IP / RFU, CAPN2 / Fold change vs veh, CAPN2 / RFU, MED14 / Fold change vs veh, MED14 / RFU, SNORA58 / Fold change vs veh, SNORA58 / RFU, C1orf63 / Fold change vs veh, C1orf63 / RFU, LRRFIP1 / Fold change vs veh, LRRFIP1 / RFU, NDUFAF7 / Fold change vs veh, NDUFAF7 / RFU, SLC12A2 / Fold change vs veh, SLC12A2 / RFU, IBTK / Fold change vs veh, IBTK / RFU, ESF1 / Fold change vs veh, ESF1 / Fold change vs veh, TMEM50B / RFU, TAOK1 / Fold change vs veh, TAOK1 / RFU, ACBD3 / Fold change vs veh, ACBD3 / RFU, TMA16 / Fold change vs veh, TMA16 / RFU, RWDD3 / Fold change vs veh, RWDD3 / RFU, BCAT1 / Fold change vs veh, BCAT1 / RFU, EDEM3 / Fold change vs veh, EDEM3 / RFU, TMEM33 / Fold change vs veh, TMEM33 / RFU, WDR75 / Fold change vs veh, WDR75 / RFU, AHCTF1 / Fold change vs veh, AHCTF1 / RFU, TFRC / Fold change vs veh, TFRC / RFU, ZDHHC17 / Fold change vs veh, ZDHHC17 / RFU, NOM1 / Fold change vs veh, NOM1 / RFU, ARL8B / Fold change vs veh, ARL8B / RFU, ZBTB11 / Fold change vs veh, ZBTB11 / RFU, TAMM41 / Fold change vs veh, TAMM41 / RFU, KIAA1704 /// LOC100996395 / Fold change vs veh, KIAA1704 /// LOC100996395 / RFU, ING1 / Fold change vs veh, ING1 / RFU, TRMT61B / Fold change vs veh, TRMT61B / RFU, FUBP3 / Fold change vs veh, FUBP3 / RFU, TP53 / Fold change vs veh, TP53 / RFU, TNKS2 / Fold change vs veh, TNKS2 / RFU, ZFP14 / Fold change vs veh, ZFP14 / RFU, ACTR2 / Fold change vs veh, ACTR2 / RFU, PPP3R1 / Fold change vs veh, PPP3R1 / RFU, PIK3R1 / Fold change vs veh, PIK3R1 / RFU, HNRNPA1 / Fold change vs veh, HNRNPA1 / RFU, RNF170 / Fold change vs veh, RNF170 / RFU, ZNF28 / Fold change vs veh, ZNF28 / RFU, RNGTT / Fold change vs veh, RNGTT / RFU, OGT / Fold change vs veh, OGT / RFU, BRD1 / Fold change vs veh, BRD1 / RFU, MARS / Fold change vs veh, MARS / RFU, ZNF655 / Fold change vs veh, ZNF655 / RFU, FAHD1 / Fold change vs veh, FAHD1 / RFU, BDP1 / Fold change vs veh, BDP1 / RFU, LRRCC1 / Fold change vs veh, LRRCC1 / RFU, ARID1A / Fold change vs veh, ARID1A / RFU, ZNF146 / Fold change vs veh, ZNF146 / RFU, ZNF330 / Fold change vs veh, ZNF330 / RFU, GPN3 / Fold change vs veh, GPN3 / RFU, C9orf123 / Fold change vs veh, C9orf123 / RFU, N4BP2L2 / Fold change vs veh, N4BP2L2 / RFU, ARFIP1 / Fold change vs veh, ARFIP1 / RFU, FAM179B / Fold change vs veh, FAM179B / RFU, BCL10 / Fold change vs veh, BCL10 / RFU, UHRF1BP1L / Fold change vs veh, UHRF1BP1L / RFU, BET1 / Fold change vs veh, BET1 / RFU, CNOT2 / Fold change vs veh, CNOT2 / RFU, ZNF268 / Fold change vs veh, ZNF268 / Fold change vs veh, ZNF507 / RFU, DGCR2 / Fold change vs veh, DGCR2 / RFU, WDSUB1 / Fold change vs veh, WDSUB1 / Fold change vs veh, HSP90B1 /// MIR3652 / RFU, ADSS / Fold change vs veh, ADSS / RFU, GK / Fold change vs veh, GK / RFU, ZNF148 / Fold change vs veh, ZNF148 / RFU, TAF9 / Fold change vs veh, TAF9 / RFU, SLC1A5 / Fold change vs veh, SLC1A5 / RFU, SLMO2 / Fold change vs veh, SLMO2 / RFU, ABCC4 / Fold change vs veh, ABCC4 / RFU, LOC101060439 /// RAP1B / Fold change vs veh, LOC101060439 /// RAP1B / RFU, RFX7 / Fold change vs veh, RFX7 / RFU, GTPBP10 / Fold change vs veh, GTPBP10 / RFU, CNEP1R1 / Fold change vs veh, CNEP1R1 / RFU, BIVM-ERCC5 /// ERCC5 / Fold change vs veh, BIVM-ERCC5 /// ERCC5 / RFU, ILF3 / Fold change vs veh, ILF3 / RFU 11762660_at / Fold change /veh 11762660_at / RFU VCAN (11757783_s_at) / Fold change /veh VCAN (11757783_s_at) / RFU DDX43 (11728927_at) / Fold change /veh DDX43 (11728927_at) / RFU KRT8 (11758188_x_at) / Fold change /veh KRT8 (11758188_x_at) / RFU NKD1 (11759106_at) / Fold change /veh NKD1 (11759106_at) / RFU SRD5A1 (11742802_a_at) / Fold change /veh SRD5A1 (11742802_a_at) / RFU TPSAB1 /// TPSB2 (11721975_s_at) / Fold change /veh TPSAB1 /// TPSB2 (11721975_s_at) / RFU GSTM3 (11746129_a_at) / Fold change /veh GSTM3 (11746129_a_at) / RFU IL23R (11737362_x_at) / Fold change /veh IL23R (11737362_x_at) / RFU TMEM51 (11727254_a_at) / Fold change /veh TMEM51 (11727254_a_at) / RFU PIWIL2 (11732686_x_at) / Fold change /veh PIWIL2 (11732686_x_at) / RFU ORM1 (11744905_x_at) / Fold change /veh ORM1 (11744905_x_at) / RFU CCDC152 (11743942_at) / Fold change /veh CCDC152 (11743942_at) / RFU ECM1 (11717891_a_at) / Fold change /veh ECM1 (11717891_a_at) / RFU IL23R (11748794_a_at) / Fold change /veh IL23R (11748794_a_at) / RFU TNFAIP8L3 (11732012_x_at) / Fold change /veh TNFAIP8L3 (11732012_x_at) / RFU MBOAT4 (11741988_at) / Fold change /veh MBOAT4 (11741988_at) / RFU 11764193_at / Fold change /veh 11764193_at / RFU TMEM53 (11763286_at) / Fold change /veh TMEM53 (11763286_at) / RFU MAGEB2 (11727129_at) / Fold change /veh MAGEB2 (11727129_at) / RFU TMEM200A (11744735_a_at) / Fold change /veh TMEM200A (11744735_a_at) / RFU CCDC152 (11751479_a_at) / Fold change /veh CCDC152 (11751479_a_at) / RFU FAM211A (11726209_a_at) / Fold change /veh FAM211A (11726209_a_at) / RFU RGS16 (11746705_a_at) / Fold change /veh RGS16 (11746705_a_at) / RFU VCAN (11755009_s_at) / Fold change /veh VCAN (11755009_s_at) / RFU RHOB (11743442_s_at) / Fold change /veh RHOB (11743442_s_at) / RFU RGS16 (11720943_a_at) / Fold change /veh RGS16 (11720943_a_at) / RFU RGS16 (11720944_at) / Fold change /veh RGS16 (11720944_at) / RFU, VPS4B / Fold change vs veh, VPS4B / RFU, CREB1 / Fold change vs veh, CREB1 / RFU, DNAJC13 / Fold change vs veh, DNAJC13 / RFU, GNAQ / Fold change vs veh, GNAQ / RFU, CDK5R1 / Fold change vs veh, CDK5R1 / RFU, ZRANB3 / Fold change vs veh, ZRANB3 / RFU, CUL4A / Fold change vs veh, CUL4A / RFU, CCNY / Fold change vs veh, CCNY / RFU, UFL1 / Fold change vs veh, UFL1 / RFU, COG3 / Fold change vs veh, COG3 / RFU, DIAPH2 / Fold change vs veh, DIAPH2 / RFU, SKA2 / Fold change vs veh, SKA2 / RFU, AFF3 / Fold change vs veh, AFF3 / RFU, LMF1 / Fold change vs veh, LMF1 / RFU, IPO11 / Fold change vs veh, IPO11 / RFU, DFFB / Fold change vs veh, DFFB / RFU, FOXP1 / Fold change vs veh, FOXP1 / RFU, CARD8 / Fold change vs veh, CARD8 / RFU, STRN3 / Fold change vs veh, STRN3 / RFU, ADK / Fold change vs veh, ADK / RFU, RASSF2 / Fold change vs veh, RASSF2 / RFU, WIPF1 / Fold change vs veh, WIPF1 / RFU, LARP1B / Fold change vs veh, LARP1B / RFU, RASA1 / Fold change vs veh, RASA1 / RFU, RB1 / Fold change vs veh, RB1 / RFU, PPFIA1 / Fold change vs veh, PPFIA1 / RFU, MAT2A / Fold change vs veh, MAT2A / RFU, CCT5 / Fold change vs veh, CCT5 / RFU, WDR92 / Fold change vs veh, WDR92 / RFU, CUX1 / Fold change vs veh, CUX1 / RFU, TTC7A / Fold change vs veh, TTC7A / RFU, TMEM135 / Fold change vs veh, TMEM135 / RFU, DEPTOR / Fold change vs veh, DEPTOR / RFU, CPM / Fold change vs veh, CPM / RFU, DNAJB6 / Fold change vs veh, DNAJB6 / RFU, CACNA2D3 / Fold change vs veh, CACNA2D3 / RFU, DTX4 / Fold change vs veh, DTX4 / RFU, TFCP2 / Fold change vs veh, TFCP2 / RFU, GMCL1 /// GMCL1P1 / Fold change vs veh, GMCL1 /// GMCL1P1 / RFU, AEBP2 / Fold change vs veh, AEBP2 / RFU, SNHG1 /// SNORD22 /// SNORD25 /// SNORD26 /// SNORD27 /// SNORD28 /// SNORD29 /// SNORD31 / Fold change vs veh, SNHG1 /// SNORD22 /// SNORD25 /// SNORD26 /// SNORD27 /// SNORD28 /// SNORD29 /// SNORD31 / Fold change (Aza/veh), C12orf56 (ProbeSet 11735607_a_at) / Fold change (ACY-1035/veh), C12orf56 (ProbeSet 11735607_a_at) / Fold change (Aza/veh), FGFR1OP (ProbeSet 11751329_s_at) / Fold change (ACY-1035/veh), FGFR1OP (ProbeSet 11751329_s_at) / Fold change (Aza/veh), VPS36 (ProbeSet 11739960_a_at) / Fold change (ACY-1035/veh), VPS36 (ProbeSet 11739960_a_at) / RFU SYPL1 (11715823_x_at) / Fold change /veh SYPL1 (11715823_x_at) / RFU IGFBP7 (11715501_s_at) / Fold change /veh IGFBP7 (11715501_s_at) / RFU REEP3 (11722064_at) / Fold change /veh REEP3 (11722064_at) / RFU IGLL1 (11728026_x_at) / Fold change /veh IGLL1 (11728026_x_at): dose or concentration left out as unconfirmed
# Conditions: ProbeSet 11716999_a_at; LIST D
smiles,measurement,value
Nc1ccc(-c2cccs2)cc1NC(=O)c1ccc2c(c1)cc(C1CC1)n2CCN1CCOCC1 [ACY-1035],"RFU, RASA1",200.63 RFU
